Where two headings read alike, the source gives them in different places.
Experiments:
[1] = Plasma pharmacokinetics, acute study (single oral administration); type: in vivo, CD1 female mice; conditions: for Cmax ±SD / AUC 0-last / HL / Tmax / Cmax / AUC(0-t): plasma analyte; for amount of metabolite in plasma in comparison to 4-HPR: study of multiple doses, after Bio-nFeR administration
Protocol: The experiments were performed in CD1 female mice, 7 weeks of age, (body weight 25 ± 2 g) obtained from Envigo RMS SrL (Udine, Italy). They were maintained under specific-pathogen-free conditions with constant temperature and humidity, according to institutional guidelines regularly checked by a certified veterinarian. Animal experimentation was conducted in conformance with the following laws, regulations, and policies governing the care and use of laboratory animals: Italian Governing Law (D. l. 26/2014; Authorization n.19/2008-A issued March 6, 2008 by the Ministry of Health). Mario Negri Institutional Regulations and Policies providing internal authorizations for persons conducting animal experiments (Quality Management System Certificate –UNI EN ISO 9001:2008 – Reg. N 86121). The experimental protocol was reviewed by the Mario Negri Institute Ethical Committee and approved by the Italian Ministry of Health (Aut. Min. No 489/2016-Pr).
The pharmacokinetics of oral Bio-nFeR was investigated in comparison to that of the reference formulation NCI-FeR, after single administration of multiple doses and after chronic administrations, daily for 2 weeks or bi-daily for 1 week. Bio-nFeR was reconstituted at 20 mg/mL fenretinide to allow the administration of 200 mg/Kg fenretinide that corresponded to the highest dose. The doses of 100, 50 and 10 mg/Kg were administered by using serial dilution of the 20 mg/mL solution.
NCI-FeR prepared, as per the NCI instructions, at 11.6% w:w fenretinide:internal capsule components, was diluted with corn oil to obtain the treatment solutions at the concentrations of 20, 15 and 10 mg/mL, corresponding to the administered doses of 200, 150 and 100 mg/Kg respectively.
The oral pharmacokinetics of Bio-nFeR were investigated in four independent groups of 24 mice, randomized to receive different treatment with the following fenretinide equivalent doses: 10, 50, 100 and 200 mg/Kg. The drug was administered by oral gavage and after treatment, blood samples were taken at 15 and 30 min and at 1, 2, 4, 8/10, 24 and 48 h and collected in heparinized tubes from the retro-orbital plexus of the mice under isoflurane anesthesia. Mice were then sacrificed by cervical dislocation and liver, kidney and brain were removed and immediately frozen in dry-ice for future determination. To obtain plasma, blood was centrifuged at 4000 rpm for 10 min at 4 °C. To evaluate fenretinide and metabolites excretion, urine and faeces were collected over a 0–24 h and 24–48 h periods. The collection was performed in three mice per group of treatment, individually housed into metabolic cages for urine and faeces collection. All the biological samples were stored at − 20 °C until analysis. To compare the absorption of Bio-nFeR to NCI-FeR and to study the bioavailability, another independent groups of 24 mice were randomized to receive an oral dose of 200 mg/Kg of NCI-FeR. Blood samples were taken at the time reported above. Twenty-four hours fractions of urine and faeces were collected in three mice per group of treatment. Plasma and the other biological specimens were stored at − 20 °C until analysis. Chronic study: the oral pharmacokinetic of Bio-nFeR in comparison with NCI-FeR were also investigated after chronic administrations. Mice were divided in three independent groups, randomized to receive a single treatment of 150 mg/Kg or different repeated treatments of 150 mg/Kg, daily for 2 weeks (12 days on and 2 days off), or 100 mg/Kg bi-daily for 1 week (5 days on 2 days off). Bio-nFeR and NCI-FeR were administered by oral gavage, collecting blood samples at 0.5, 1, 2, 4, 8/10 and 24 h, the day of the single treatment and at 0, 1, 2, 4, 8/10, 24 and 48 h after the last dose of both the chronic treatments. The procedures of blood collection, plasma preparation, sacrifice of mice and storing of samples were as reported in acute study. […]

[2] = stated as known, no reference given; cited from earlier work
[3] = mice, single oral Bio-nFeR 10 mg/kg, Suppl. Table 2 A
[4] = mice, single oral Bio-nFeR 50 mg/kg, Suppl. Table 2 A
[5] = mice, single oral Bio-nFeR 100 mg/kg, Suppl. Table 2 A
[6] = mice, single oral Bio-nFeR 200 mg/kg, Suppl. Table 2 A
[7] = single oral Bio-nFeR 10 mg/kg, Suppl. Table 2 A
[8] = single oral Bio-nFeR 50 mg/kg, Suppl. Table 2 A
[9] = single oral Bio-nFeR 100 mg/kg, Suppl. Table 2 A
[10] = single oral Bio-nFeR 200 mg/kg, Suppl. Table 2 A
[11] = single oral Bio-nFeR, 4-HPR dose 200mg/Kg, Suppl. Table 2 B
[12] = single oral NCI-nFeR, 4-HPR dose 200mg/Kg, Suppl. Table 2 B
[13] = female, CD1, mouse, plasma, po, 200 mg/kg, single oral Bio-nFeR, 4-HPR dose 200mg/Kg, Suppl. Table 2 B
[14] = female, CD1, mouse, plasma, po, 200 mg/kg, single oral NCI-nFeR, 4-HPR dose 200mg/Kg, Suppl. Table 2 B

Structure (SMILES): CC1=C(/C=C/C(C)=C/C=C/C(C)=C/C(=O)Nc2ccc(O)cc2)C(C)(C)CCC1=O [4-oxo-4-HPR]
- Cmax ±SD [1, 3]: 505.1 ng/mL
- Cmax ±SD [1, 4]: 2389.1 ng/mL
- Cmax ±SD [1, 5]: 3109.1 ng/mL
- Cmax ±SD [1, 6]: 4071.2 ng/mL
- AUC 0-last [1, 7]: 4145.3 ng·h/mL
- HL [1, 7]: 5.2 h
- Tmax [1, 7]: 2 h
- AUC 0-last [1, 8]: 24372.6 ng·h/mL
- HL [1, 8]: 5.4 h
- Tmax [1, 8]: 4 h
- AUC 0-last [1, 9]: 38500.3 ng·h/mL
- HL [1, 9]: 4.8 h
- Tmax [1, 9]: 4 h
- AUC 0-last [1, 10]: 58677.2 ng·h/mL
- HL [1, 10]: 5.3 h
- Tmax [1, 10]: 4 h
- AUC 0-last [1, 11]: 58677.2 ng·h/mL
- Cmax ±SD [1, 11]: 4071.2 ng/mL
- HL [1, 11]: 5.3 h
- Tmax [1, 11]: 4 h
- AUC 0-last [1, 12]: 39875.4 ng·h/mL
- Cmax ±SD [1, 12]: 3372.3 ng/mL
- HL [1, 12]: 5.4 h
- Tmax [1, 12]: 4 h
- amount of metabolite in plasma in comparison to 4-HPR [1]: about 50%

Structure (SMILES): COc1ccc(NC(=O)\C=C(C)/C=C/C=C(C)\C=C\C2=C(C)CCCC2(C)C)cc1 [MPR]
- Cmax ±SD [1, 3]: 120.6 ng/mL
- Cmax ±SD [1, 4]: 778.9 ng/mL
- Cmax ±SD [1, 5]: 1112.6 ng/mL
- Cmax ±SD [1, 6]: 1070.5 ng/mL
- AUC 0-last [1, 7]: 1750.7 ng·h/mL
- HL [1, 7]: 9.4 h
- Tmax [1, 7]: 4 h
- AUC 0-last [1, 8]: 9931.5 ng·h/mL
- HL [1, 8]: 10.3 h
- Tmax [1, 8]: 4 h
- AUC 0-last [1, 9]: 15439.7 ng·h/mL
- HL [1, 9]: 8.6 h
- Tmax [1, 9]: 4 h
- AUC 0-last [1, 10]: 21449.6 ng·h/mL
- HL [1, 10]: 11.6 h
- Tmax [1, 10]: 4 h
- AUC 0-last [1, 11]: 21449.6 ng·h/mL
- Cmax ±SD [1, 11]: 1070.5 ng/mL
- HL [1, 11]: 11.6 h
- Tmax [1, 11]: 4 h
- AUC 0-last [1, 12]: 23406.1 ng·h/mL
- Cmax ±SD [1, 12]: 1407.0 ng/mL
- HL [1, 12]: 9.9 h
- Tmax [1, 12]: 4 h
- amount of metabolite in plasma in comparison to 4-HPR [1]: ~15%
- activity of the metabolite [2]: inactive

Structure (SMILES): CC1=C(/C=C/C(C)=C/C=C/C(C)=C/C(=O)Nc2ccc(O)cc2)C(C)(C)CCC1 [4-HPR, 4-hydroxy (phenyl)retinamide, reference compound]
- Cmax ([1]; female, CD1, mouse, plasma, po, 10 mg/kg, mice, single oral Bio-nFeR 10 mg/kg, Suppl. Table 2 A): 601 ng/mL
- AUC(0-t) ([1]; female, CD1, mouse, plasma, po, 10 mg/kg, single oral Bio-nFeR 10 mg/kg, Suppl. Table 2 A): 6750 ng·h/mL
- Tmax ([1]; female, CD1, mouse, plasma, po, 10 mg/kg, single oral Bio-nFeR 10 mg/kg, Suppl. Table 2 A, read-out: Tmax): 2 h
- Cmax ([1]; female, CD1, mouse, plasma, po, 50 mg/kg, mice, single oral Bio-nFeR 50 mg/kg, Suppl. Table 2 A): 3650 ng/mL
- AUC(0-t) ([1]; female, CD1, mouse, plasma, po, 50 mg/kg, single oral Bio-nFeR 50 mg/kg, Suppl. Table 2 A): 39200 ng·h/mL
- Tmax ([1]; female, CD1, mouse, plasma, po, 50 mg/kg, single oral Bio-nFeR 50 mg/kg, Suppl. Table 2 A, read-out: Tmax): 4 h
- Cmax ([1]; female, CD1, mouse, plasma, po, 100 mg/kg, mice, single oral Bio-nFeR 100 mg/kg, Suppl. Table 2 A): 5340 ng/mL
- AUC(0-t) ([1]; female, CD1, mouse, plasma, po, 100 mg/kg, single oral Bio-nFeR 100 mg/kg, Suppl. Table 2 A): 66300 ng·h/mL
- Tmax ([1]; female, CD1, mouse, plasma, po, 100 mg/kg, single oral Bio-nFeR 100 mg/kg, Suppl. Table 2 A, read-out: Tmax): 4 h
- Cmax ([1]; female, CD1, mouse, plasma, po, 200 mg/kg, mice, single oral Bio-nFeR 200 mg/kg, Suppl. Table 2 A): 6840 ng/mL
- AUC(0-t) ([1]; female, CD1, mouse, plasma, po, 200 mg/kg, single oral Bio-nFeR 200 mg/kg, Suppl. Table 2 A): 113000 ng·h/mL
- Tmax ([1]; female, CD1, mouse, plasma, po, 200 mg/kg, single oral Bio-nFeR 200 mg/kg, Suppl. Table 2 A, read-out: Tmax): 2 h
- AUC(0-t) [1, 13]: 113000 ng·h/mL
- Cmax [1, 13]: 6840 ng/mL
- Tmax ([1]; female, CD1, mouse, plasma, po, 200 mg/kg, single oral Bio-nFeR, 4-HPR dose 200mg/Kg, Suppl. Table 2 B, read-out: Tmax): 2 h
- AUC(0-t) [1, 14]: 97900 ng·h/mL
- Cmax [1, 14]: 8460 ng/mL
- Tmax ([1]; female, CD1, mouse, plasma, po, 200 mg/kg, single oral NCI-nFeR, 4-HPR dose 200mg/Kg, Suppl. Table 2 B, read-out: Tmax): 4 h
- half-life ([1]; female, CD1, mouse, plasma, mice, oral Bio-nFeR, different doses, read-out: elimination half-life (converted)): ~7 h
- HL [1, 7]: 7.5 h
- HL [1, 8]: 7.3 h
- HL [1, 9]: 6.5 h
- HL [1, 10]: 7.2 h
- HL [1, 11]: 7.2 h
- HL [1, 12]: 6.7 h

Source: article PMC6706930, “A novel oral micellar fenretinide formulation with enhanced bioavailability and antitumour activity against multiple tumours from cancer stem cells” (Journal of Experimental & Clinical Cancer Research : CR, 2019)
